Data published in US12384751B2, “Allosteric activators of the ALPHA1A-adrenergic receptor” (The Cleveland Clinic Foundation, priority 2019, dated 2025).
Entries after “also recorded” stand apart in the source; their conditions may differ. Where two headings read alike, the source gives them in different places.

Columns and labels:
α1A-AR [1] = biological target: T1, α1A-AR (Homo sapiens, UniProt P35348); assay: Competition binding with [125I]HEAT at α1A-AR (Rat-1 fibroblast membranes); set-up: expressed in transfected cells; host or cells: Rat-1 fibroblast cells
T1 sequence (P35348 1-466): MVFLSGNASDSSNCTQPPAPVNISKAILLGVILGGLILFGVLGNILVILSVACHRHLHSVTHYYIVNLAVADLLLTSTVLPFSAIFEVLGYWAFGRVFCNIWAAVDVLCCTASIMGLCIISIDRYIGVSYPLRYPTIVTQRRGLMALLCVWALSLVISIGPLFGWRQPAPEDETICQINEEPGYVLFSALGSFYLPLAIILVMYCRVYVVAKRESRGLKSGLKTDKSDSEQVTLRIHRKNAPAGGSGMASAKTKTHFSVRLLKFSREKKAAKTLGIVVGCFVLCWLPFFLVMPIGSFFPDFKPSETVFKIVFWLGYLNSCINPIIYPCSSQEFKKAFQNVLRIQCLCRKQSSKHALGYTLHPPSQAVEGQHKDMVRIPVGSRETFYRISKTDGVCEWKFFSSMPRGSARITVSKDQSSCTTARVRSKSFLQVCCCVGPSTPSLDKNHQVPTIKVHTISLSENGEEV
Procedure: Competition binding assays: […] Assays were performed in duplicate in HEM buffer, in a total assay volume of 1000 μl. […] The above conditions will convert all the conformations of the receptor into a single low affinity site. To show both high and low affinity sites of the receptor (typically seen with GPCR agonists), the GTP is removed from the binding buffer. Nonspecific binding was determined experimentally in the presence of 10^−4 M phentolamine. Unbound radioactivity was separated from membrane-bound radioactivity by filtration through Whatman GF/C filter paper. Filters are washed five times with 5 ml of cold HEM buffer containing 0.5 mMGTP (if added to the binding buffer but not if it was not added to the binding buffer). Bound radioactivity remaining on the filters was counted on an ICN gamma counter operating at 79.8% efficiency. Data are analyzed using Graphpad Prism.

α1A-AR [2] = biological target: T1, α1A-AR; assay: cAMP assay at α1A-AR; assay type: cell-based; set-up: expressed in transfected cells; host or cells: Rat-1 fibroblast cells
Procedure: (§1) cAMP assay: Cells expressing a single α1-adrenergic receptor subtype are washed and re-plated into 24-well plates in DMEM media without serum at approximately 2.4×10^4 cells/well. Cells are allowed to rest till the next day in a CO2 incubator at 37° C. The cells are washed twice with DMEM (no serum), then 1 ml of DMEM is added to each well. Cells are pre-incubated for 45 mins-1 hour at 37° C. in a CO2 incubator with 10 uM propranolol, followed by 100 uM IBMX for 30 minutes. Final DMSO concentration is at 0.05%. Norepinephrine or epinephrine is added in a dose response (1 dose per well) in addition to one of the Compounds 1-10 at one concentration (i.e. 10^−5M). Cells are incubated for another 30 mins at 37° C. in a CO2 incubator. The reaction is concluded by aspirating the media and adding 0.1M HCL. The mixture is incubated for 20 mins at room temperature. The cells are scraped and suspended until homogenous. The mixture is centrifuged at 1000 g for 10 mins and the supernatant assayed the same day according to a manufacturer's cAMP kit (Cayman Select Cyclic AMP EIA kit #501040).

α1D-AR = biological target: T2, α1D-AR (Homo sapiens, UniProt P25100); assay: cAMP assay at α1D-AR; assay type: cell-based
T2 construct: expressed in transfected cells; host or cells: Rat-1 fibroblast cells
T2 sequence (P25100 1-572): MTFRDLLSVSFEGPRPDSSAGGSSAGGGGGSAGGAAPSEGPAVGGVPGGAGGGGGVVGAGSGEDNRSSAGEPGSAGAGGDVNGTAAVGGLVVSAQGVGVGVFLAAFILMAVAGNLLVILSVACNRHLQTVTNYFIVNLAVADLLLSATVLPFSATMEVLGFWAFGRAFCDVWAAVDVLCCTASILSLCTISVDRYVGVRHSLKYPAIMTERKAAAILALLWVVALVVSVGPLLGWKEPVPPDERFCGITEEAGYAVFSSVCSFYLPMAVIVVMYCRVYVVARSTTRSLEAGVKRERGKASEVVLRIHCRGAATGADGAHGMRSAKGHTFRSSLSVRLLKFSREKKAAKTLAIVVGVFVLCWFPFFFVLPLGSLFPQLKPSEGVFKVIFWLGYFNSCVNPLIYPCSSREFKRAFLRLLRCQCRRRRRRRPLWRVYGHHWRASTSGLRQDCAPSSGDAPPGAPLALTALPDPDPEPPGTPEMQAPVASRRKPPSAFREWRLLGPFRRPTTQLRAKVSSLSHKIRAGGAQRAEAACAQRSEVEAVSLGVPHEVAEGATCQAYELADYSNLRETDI
Procedure: as §1

α1A-AR [3] = biological target: T1, α1A-AR; assay: Effect of compound on binding affinity of norepinephrine, epinephrine or other ligands at α1A-AR; set-up: expressed in transfected cells; host or cells: Rat-1 fibroblast cells
[4] = Blood pressure in APP (London Mutation) AD mice and WT controls; assay type: in vivo, mouse; conditions: 40 mg/kg/bw daily

With `CC(C)Cc1c(OCC2=NCCN2)cccc1N(C)S(C)(=O)=O` [Compound 3, N-[3-(4,5-Dihydro-1H-imidazol-2-ylmethoxy)-2-isobutyl-phenyl]-N-methyl-methanesulfonamide] the “binding behaviour against radiolabeled antagonist 125I-HEAT (full inhibition; competitive or allosteric)” value (α1A-AR [1]) was “cannot fully inhibit”, the Ki (α1A-AR [1]; 0.5 mM GTP in binding buffer, competition with 125I-HEAT, read-out: affinity for the α1A-AR) was ~100 nM and the Ki (α1A-AR [1]; GTP removed from binding buffer, read-out: high affinity site) was 0.001 nM. For the same compound, the “PAM activity / PAM type” value (α1A-AR [2]) was “Type I PAM”, the “dose at which potentiation of norepinephrine cAMP response is maximal” value (α1A-AR [2]) was 10^−8 M and the “effect on epinephrine-mediated cAMP response at the α1A-AR” value (α1A-AR [2]; 10^−5M to 10^−7M of compound) was “no effect”. The “effect on norepinephrine-mediated cAMP response at the α1A-AR” value (α1A-AR [2]; 10^−5M to 10^−9M of compound) was “potentiates”, the “stimulation of cAMP by the compound by itself” value (α1A-AR [2]; compound alone) was “cannot stimulate” and the “potentiation of the cAMP response of norepinephrine” value (α1A-AR [2]; dose-response of compound) was 50%. The “effect on norepinephrine cAMP response at the α1D-AR” value (α1D-AR) was “no effect”, the “effect on binding of phentolamine at the α1A-AR” value (α1A-AR [3]; 10^−5M) was “no effect; also recorded: does not change the affinity” and the “effect on binding of cirazoline at the α1A-AR” value (α1A-AR [3]; 10^−5M and 10^−7M) was “does not affect; also recorded: no effect”. For the same compound, the “blood pressure, treated vs placebo” value [4] was “no changes in blood pressure”.
